The values that follow come from patent US11834424B2, “Compounds useful as chaperone-mediated autophagy modulators” (ALBERT EINSTEIN COLLEGE OF MEDICINE, priority 2018, dated 2023).

The test system of data set [1] is chaperone-mediated autophagy (CMA) in NIH 3T3 fibroblasts. As to the kind of experiment: Photoswitchable KFERQ-Dendra CMA reporter assay in NIH 3T3 fibroblasts. Type of data set: cell-based. How it is done: The photoactivatable CMA reporter assay was constructed by inserting a sequence of 21 amino acid of Ribonuclease A bearing the CMA-targeting motif in the N-terminus multicloning site of the photoactivatable protein mCherryl or the photoswitchable protein Dendra 2.
NIH 3T3 fibroblasts were stably transduced with a photoconvertible CMA reporter, KFERQ-Dendra. were photoswitched by exposure to a […] (constant current) LED (Norlux, 405 nm) for 10 minutes and at the desired times fixed in 3% formaldehyde. Test cells were exposed to the indicated concentrations of the compounds for 12 hours (FIG. 3A) or 24 hours (FIG. 3B). Cells were imaged using high content microscopy (Operetta, Perkin Elmer) or by capturing images with an Axiovert 200 fluorescence microscope (Zeiss) with apotome and equipped with a 63/1.4 NA oil objective lens and red (ex. 570/30 nm, em. 615/30 nm), cyan (ex. 365/50 nm and em. 530/45 nm) and green (ex. 475/40 nm and em. 535/45 nm) filter sets (Chroma). Images were acquired with a high-resolution CCD camera after optical sectioning through the apotome. CMA activity measured as the average number of fluorescent puncta (CMA active lysosomes) per cell. Values are expressed relative to values in untreated cells that were assigned an arbitrary value of 1 and are mean of >2,500 cells counted per condition. The S.D. in all instances was <0.01% mean value. Table 2 provides a comparison of compounds CA39.1 and its comparative example CA39 and CA77.01 and its comparative example CA77.
In general terms: Reporter assays use an easily measured gene product as a stand-in for the process of interest.

The next data set in a line: in vitro. Conditions: human, microsomes; for CLint(mic) / Remaining (T = 60 min): 3 μM; for Remaining (T = 60 min): 1 h; for CLint scaled at 3 μM: CLint(liver). How it is done: Microsome stability was determined in human, rat, and mouse, liver microsomes. Compound at 3 μM final concentration along with 0.5 mg/mL microsome protein and 1 mM NADPH was incubated for 0, 5, 15, 30 and 60 min. As a negative control, test compound was incubated with microsomes in the absence of NADPH. Samples were quenched with methanol and centrifuged for 25 min at 2500 rpm to precipitate proteins. Supernatants were analyzed (N=3) by LC-MS/MS. The In peak area ratio (compound peak area/internal standard peak area) was plotted against time and the gradient of the line determined the elimination rate constant [k=(−1)(slope)].
R^2 is the correlation coefficient of the linear regression for the determination of kinetic constant. T1/2 is the half life and CLint (mic) is the intrinsic clearance. CLint(liver)=CLint (mic)*mg microsomal protein/g liver weight*g liver weight/kg body weight. Liver weight/kg body weight is 20 g/kg for human.

SMILES strings stand for the structures.

Turning to `CC(=O)Nc1ccc(C2=Nc3ccc(Cl)cc3OC2)cc1` [CA77, reference compound], the “CMA activity (fluorescent puncta per cell, relative to untreated cells = 1)” value was determined as 2.667 in data set [1] (Time 5), 3.331 in data set [1] (Time 10), 5.005 in data set [1] (Time 20) and 5.471 in data set [1] (Time 30). In addition, in “in vitro”, the half-life (in general, how long it takes for the measured level to halve) at 3 μM is 34 min. Further, the CLint(mic) in the data set “in vitro” came out at 40.8 µL/min/mg. Also, in the data set “in vitro”, the “Remaining (T = 60 min)” value is listed as 25.9%. Besides, in the data set “in vitro”, the CLint scaled (usually the rate of metabolic loss divided by the concentration) at 3 μM is 36.7 mL/min/kg.
With `CC(=O)Nc1ccc(-c2cnc3cc(Cl)ccc3n2)cc1` [CA77.1, N-(4-(6-chloroquinoxalin-2-yl)phenyl)acetamide], in data set [1] (Time 5), the “CMA activity (fluorescent puncta per cell, relative to untreated cells = 1)” value is 2.53. For the same compound, the “CMA activity (fluorescent puncta per cell, relative to untreated cells = 1)” value in data set [1] (Time 10) stood at 3.365. The “CMA activity (fluorescent puncta per cell, relative to untreated cells = 1)” value in data set [1] (Time 20) was determined as 5.858. The “CMA activity (fluorescent puncta per cell, relative to untreated cells = 1)” value in data set [1] (Time 30) is on record as 5.889. In addition, in the data set “in vitro”, the half-life at 3 μM was determined as 20.6 min, the CLint(mic) was determined as 67.2 µL/min/mg, the “Remaining (T = 60 min)” value stood at 10.8% and the CLint scaled at 3 μM was determined as 60.5 mL/min/kg.
